From paper PMC10174618, “Monoterpenoid aryl hydrocarbon receptor allosteric antagonists protect against ultraviolet skin damage in female mice” (Nature Communications, 2023)

Tests used:
Experiment in all cases: biochemical
Design in all cases: KINOMEscan scanMAX active site-directed competition binding assay, percent of control, 468 kinases
Conditions in all cases: competition binding, percent of control
[1] = biological target: MKNK2 (Homo sapiens, UniProt Q9HBH9)
Summary of the method: (§1)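 Single-concentration screen (100 μM S-carvone) in a competition binding panel of 468 human kinases (KINOMEscan scanMAX); results given as percent of control, hit cutoff 35%.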

[2] = biological target: EGFR(L858R) (Homo sapiens, UniProt P00533, L858R)
EGFR(L858R), sequence (P00533 whole entry L858R): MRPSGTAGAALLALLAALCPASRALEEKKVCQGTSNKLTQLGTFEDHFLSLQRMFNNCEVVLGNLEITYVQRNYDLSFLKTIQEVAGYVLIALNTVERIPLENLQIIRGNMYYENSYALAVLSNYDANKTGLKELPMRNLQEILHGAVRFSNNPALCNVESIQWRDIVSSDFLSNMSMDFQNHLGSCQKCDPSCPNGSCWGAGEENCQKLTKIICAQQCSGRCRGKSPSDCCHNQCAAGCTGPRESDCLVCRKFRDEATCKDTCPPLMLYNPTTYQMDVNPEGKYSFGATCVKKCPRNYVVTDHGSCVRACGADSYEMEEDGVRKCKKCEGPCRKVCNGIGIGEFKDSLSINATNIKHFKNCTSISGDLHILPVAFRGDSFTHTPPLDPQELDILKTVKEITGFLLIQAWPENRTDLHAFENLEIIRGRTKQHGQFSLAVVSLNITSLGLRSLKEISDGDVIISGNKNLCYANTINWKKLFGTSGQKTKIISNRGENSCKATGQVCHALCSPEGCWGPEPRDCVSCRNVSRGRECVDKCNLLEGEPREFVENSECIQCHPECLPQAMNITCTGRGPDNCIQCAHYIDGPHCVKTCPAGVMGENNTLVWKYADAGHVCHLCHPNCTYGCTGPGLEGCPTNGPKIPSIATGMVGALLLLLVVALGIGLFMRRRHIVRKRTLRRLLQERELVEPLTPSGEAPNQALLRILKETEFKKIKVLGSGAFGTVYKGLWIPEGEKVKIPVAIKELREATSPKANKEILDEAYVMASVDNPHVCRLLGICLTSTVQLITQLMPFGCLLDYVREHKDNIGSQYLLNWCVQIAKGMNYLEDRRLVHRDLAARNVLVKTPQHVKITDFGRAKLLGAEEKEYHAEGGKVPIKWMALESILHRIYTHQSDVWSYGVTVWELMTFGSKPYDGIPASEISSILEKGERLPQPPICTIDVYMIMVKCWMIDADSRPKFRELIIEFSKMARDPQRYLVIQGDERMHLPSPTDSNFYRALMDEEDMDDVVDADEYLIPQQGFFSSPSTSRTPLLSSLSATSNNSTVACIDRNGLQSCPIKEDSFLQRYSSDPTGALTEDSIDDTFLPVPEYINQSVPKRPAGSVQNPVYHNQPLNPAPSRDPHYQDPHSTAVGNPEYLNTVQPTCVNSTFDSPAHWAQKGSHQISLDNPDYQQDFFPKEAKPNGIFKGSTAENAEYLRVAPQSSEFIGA
Summary of the method: as §1

[3] = biological target: TNIK (Homo sapiens, UniProt Q9UKE5)
Summary of the method: as §1

[4] = biological target: PIK3CA (Homo sapiens, UniProt P42336)
Summary of the method: as §1

[5] = biological target: T1, MST3 (Homo sapiens, UniProt Q9Y6E0)
T1 construct: gene STK24
Summary of the method: as §1

[6] = biological target: DDR2 (Homo sapiens, UniProt Q16832)
Summary of the method: as §1

[7] = biological target: FLT3(D835H) (Homo sapiens, UniProt P36888, D835H)
Summary of the method: as §1

[8] = biological target: TSSK1B (Homo sapiens, UniProt Q9BXA7)
TSSK1B, sequence (Q9BXA7 whole entry): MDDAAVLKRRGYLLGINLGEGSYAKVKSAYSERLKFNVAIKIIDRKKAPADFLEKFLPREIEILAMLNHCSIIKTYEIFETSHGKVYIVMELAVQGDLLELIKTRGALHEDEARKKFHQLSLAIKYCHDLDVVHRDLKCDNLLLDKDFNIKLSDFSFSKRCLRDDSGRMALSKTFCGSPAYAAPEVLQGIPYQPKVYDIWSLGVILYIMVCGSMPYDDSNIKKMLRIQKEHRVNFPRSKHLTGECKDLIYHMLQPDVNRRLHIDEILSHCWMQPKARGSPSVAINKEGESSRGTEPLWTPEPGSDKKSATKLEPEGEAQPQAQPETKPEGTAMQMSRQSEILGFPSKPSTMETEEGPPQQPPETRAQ
Summary of the method: as §1

[9] = biological target: T2, NIM1 (Homo sapiens, UniProt Q8IY84)
T2 construct: gene NIM1K
T2 sequence (Q8IY84 whole entry): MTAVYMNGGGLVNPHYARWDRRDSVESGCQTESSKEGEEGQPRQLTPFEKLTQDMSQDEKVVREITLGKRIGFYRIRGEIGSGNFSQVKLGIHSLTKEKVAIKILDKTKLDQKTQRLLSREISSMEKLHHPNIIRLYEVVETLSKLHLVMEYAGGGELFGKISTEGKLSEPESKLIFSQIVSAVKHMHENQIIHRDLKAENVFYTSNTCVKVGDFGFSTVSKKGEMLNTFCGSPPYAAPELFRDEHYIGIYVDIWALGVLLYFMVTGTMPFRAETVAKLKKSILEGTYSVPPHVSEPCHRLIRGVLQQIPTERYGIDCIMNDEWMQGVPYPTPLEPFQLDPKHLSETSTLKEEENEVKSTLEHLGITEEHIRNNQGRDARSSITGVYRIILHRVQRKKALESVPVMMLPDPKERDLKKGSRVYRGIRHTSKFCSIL
Summary of the method: as §1

[10] = biological target: HIPK1 (Homo sapiens, UniProt Q86Z02)
Summary of the method: as §1

[11] = biological target: FGFR1 (Homo sapiens, UniProt P11362)
Summary of the method: as §1

[12] = biological target: CAMK2B (Homo sapiens, UniProt Q13554)
CAMK2B, sequence (Q13554 whole entry): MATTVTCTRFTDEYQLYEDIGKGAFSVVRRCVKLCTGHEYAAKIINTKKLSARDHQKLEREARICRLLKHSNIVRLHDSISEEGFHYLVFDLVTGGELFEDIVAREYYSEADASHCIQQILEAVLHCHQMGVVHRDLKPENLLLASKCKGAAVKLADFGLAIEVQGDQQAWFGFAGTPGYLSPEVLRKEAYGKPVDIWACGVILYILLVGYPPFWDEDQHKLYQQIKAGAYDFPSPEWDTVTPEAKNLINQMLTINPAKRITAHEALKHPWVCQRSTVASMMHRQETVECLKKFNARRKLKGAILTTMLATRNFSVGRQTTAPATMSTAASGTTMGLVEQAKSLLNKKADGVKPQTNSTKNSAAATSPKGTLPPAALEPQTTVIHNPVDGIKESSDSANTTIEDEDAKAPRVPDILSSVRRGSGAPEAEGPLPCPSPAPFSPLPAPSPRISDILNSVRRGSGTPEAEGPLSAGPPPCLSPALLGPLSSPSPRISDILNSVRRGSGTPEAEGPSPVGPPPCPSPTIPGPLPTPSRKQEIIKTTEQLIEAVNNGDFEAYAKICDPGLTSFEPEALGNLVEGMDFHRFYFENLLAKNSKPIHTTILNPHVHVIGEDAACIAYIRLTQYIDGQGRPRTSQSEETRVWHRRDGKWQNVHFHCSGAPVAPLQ
Summary of the method: as §1

[13] = biological target: EPHB2 (Homo sapiens, UniProt P29323)
Summary of the method: as §1

[14] = biological target: PIK3CA(E542K) (Homo sapiens, UniProt P42336, E542K)
Summary of the method: as §1

[15] = biological target: EPHA7 (Homo sapiens, UniProt Q15375)
EPHA7, sequence (Q15375 whole entry): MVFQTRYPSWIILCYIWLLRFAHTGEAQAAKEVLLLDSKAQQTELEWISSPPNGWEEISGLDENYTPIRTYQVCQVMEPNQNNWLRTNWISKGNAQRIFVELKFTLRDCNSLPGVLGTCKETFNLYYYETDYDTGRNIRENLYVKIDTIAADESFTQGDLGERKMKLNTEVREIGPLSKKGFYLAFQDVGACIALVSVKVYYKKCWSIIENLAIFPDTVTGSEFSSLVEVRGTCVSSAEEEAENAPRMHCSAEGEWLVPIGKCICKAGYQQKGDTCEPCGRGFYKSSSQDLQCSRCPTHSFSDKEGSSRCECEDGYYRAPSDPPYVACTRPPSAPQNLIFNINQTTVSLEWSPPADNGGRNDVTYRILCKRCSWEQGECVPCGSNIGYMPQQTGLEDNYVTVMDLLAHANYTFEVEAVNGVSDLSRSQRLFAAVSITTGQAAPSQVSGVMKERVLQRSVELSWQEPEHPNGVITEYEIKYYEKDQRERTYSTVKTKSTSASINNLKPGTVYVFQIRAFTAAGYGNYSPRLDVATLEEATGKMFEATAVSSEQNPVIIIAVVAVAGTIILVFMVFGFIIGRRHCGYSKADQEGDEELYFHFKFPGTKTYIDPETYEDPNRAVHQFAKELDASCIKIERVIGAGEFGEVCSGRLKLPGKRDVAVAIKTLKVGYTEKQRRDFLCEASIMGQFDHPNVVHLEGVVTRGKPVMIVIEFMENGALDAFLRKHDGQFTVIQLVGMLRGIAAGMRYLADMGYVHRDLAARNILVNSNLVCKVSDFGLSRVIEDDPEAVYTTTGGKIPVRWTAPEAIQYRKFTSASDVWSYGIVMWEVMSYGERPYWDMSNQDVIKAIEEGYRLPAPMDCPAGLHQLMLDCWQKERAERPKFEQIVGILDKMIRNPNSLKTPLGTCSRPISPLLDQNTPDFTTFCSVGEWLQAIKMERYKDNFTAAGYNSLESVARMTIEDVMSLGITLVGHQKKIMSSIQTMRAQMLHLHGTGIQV
Summary of the method: as §1

[16] = biological target: T3, JAK1(JH1domain-catalytic) (Homo sapiens, UniProt P23458)
T3 construct: JH1domain-catalytic
Summary of the method: as §1

[17] = biological target: MUSK (Homo sapiens, UniProt O15146)
Summary of the method: as §1

[18] = biological target: NEK6 (Homo sapiens, UniProt Q9HC98)
NEK6, sequence (Q9HC98 whole entry): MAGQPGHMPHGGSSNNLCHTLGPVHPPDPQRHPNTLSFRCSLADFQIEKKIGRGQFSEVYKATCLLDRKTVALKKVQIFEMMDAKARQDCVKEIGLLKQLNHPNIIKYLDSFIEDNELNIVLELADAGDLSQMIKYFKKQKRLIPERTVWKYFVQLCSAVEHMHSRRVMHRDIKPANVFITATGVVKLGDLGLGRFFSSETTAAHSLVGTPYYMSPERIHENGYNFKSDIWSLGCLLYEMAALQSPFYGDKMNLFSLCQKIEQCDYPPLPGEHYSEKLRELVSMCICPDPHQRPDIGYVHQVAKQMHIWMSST
Summary of the method: as §1

[19] = biological target: T4, ABL1(H396P)-phosphorylated (Homo sapiens, UniProt P00519, H396P)
T4 construct: phosphorylated
Summary of the method: as §1

[20] = biological target: T5, MST1 (Homo sapiens, UniProt Q13043)
T5 construct: gene STK4
Summary of the method: as §1

[21] = biological target: LYN (Homo sapiens, UniProt P07948)
LYN, sequence (P07948 whole entry): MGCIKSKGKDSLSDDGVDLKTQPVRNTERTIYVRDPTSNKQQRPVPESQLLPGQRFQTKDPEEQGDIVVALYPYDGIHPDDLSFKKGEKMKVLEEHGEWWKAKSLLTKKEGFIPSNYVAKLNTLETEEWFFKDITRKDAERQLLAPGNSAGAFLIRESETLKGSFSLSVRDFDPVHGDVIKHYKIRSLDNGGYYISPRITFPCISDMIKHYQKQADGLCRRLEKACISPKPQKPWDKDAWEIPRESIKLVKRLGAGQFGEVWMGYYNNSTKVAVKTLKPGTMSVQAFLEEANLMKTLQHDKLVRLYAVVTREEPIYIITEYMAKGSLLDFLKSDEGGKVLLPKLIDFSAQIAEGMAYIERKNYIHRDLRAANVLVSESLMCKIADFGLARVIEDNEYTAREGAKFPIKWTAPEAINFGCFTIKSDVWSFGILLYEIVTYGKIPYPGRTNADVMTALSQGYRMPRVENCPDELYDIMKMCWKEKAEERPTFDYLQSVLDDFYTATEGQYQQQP
Summary of the method: as §1

[22] = biological target: T6, ABL1-phosphorylated (Homo sapiens, UniProt P00519)
T6 construct: phosphorylated
Summary of the method: as §1

MKNK2, sequence (Q9HBH9 whole entry): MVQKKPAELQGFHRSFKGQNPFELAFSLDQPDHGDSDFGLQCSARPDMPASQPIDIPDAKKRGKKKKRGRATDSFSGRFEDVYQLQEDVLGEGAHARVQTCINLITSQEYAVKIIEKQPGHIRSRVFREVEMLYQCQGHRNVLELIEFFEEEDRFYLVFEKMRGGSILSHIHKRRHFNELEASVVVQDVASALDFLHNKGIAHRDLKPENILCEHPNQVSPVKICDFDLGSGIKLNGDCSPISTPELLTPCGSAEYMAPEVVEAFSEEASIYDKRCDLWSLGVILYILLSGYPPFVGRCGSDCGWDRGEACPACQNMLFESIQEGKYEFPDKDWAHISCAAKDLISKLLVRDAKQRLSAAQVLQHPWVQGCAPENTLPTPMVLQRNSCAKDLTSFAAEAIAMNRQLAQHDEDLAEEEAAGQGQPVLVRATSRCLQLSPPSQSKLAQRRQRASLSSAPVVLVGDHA

For `C=C(C)[C@H]1CC=C(C)C(=O)C1` [S-carvone], the remaining binding at 100 µM [1] was 82%, the remaining binding at 100 µM [2] was 85% and the remaining binding at 100 µM [3] was 84%. For the same compound, the remaining binding at 100 µM [4] was 79%, the remaining binding at 100 µM [5] was 64% and the remaining binding at 100 µM [6] was 88%. For the same compound, the remaining binding at 100 µM [7] was 92%, the remaining binding at 100 µM [8] was 95% and the remaining binding at 100 µM [9] was 65%. For the same compound, the remaining binding at 100 µM [10] was 61%, the remaining binding at 100 µM [11] was 92% and the remaining binding at 100 µM [12] was 86%. The remaining binding at 100 µM [13] was 66%, the remaining binding at 100 µM [14] was 70% and the remaining binding at 100 µM [15] was 91%. The remaining binding at 100 µM [16] was 100%, the remaining binding at 100 µM [17] was 100% and the remaining binding at 100 µM [18] was 84%. The remaining binding at 100 µM [19] was 65%, the remaining binding at 100 µM [20] was 81% and the remaining binding at 100 µM [21] was 72%. The remaining binding at 100 µM [22] was 73%.
